Experimental data published in patent US20040019018A1, “Rigid pyrrolidone modulators of pkc” (priority 2003, published 2004).
Several values for one entry are separate records, joined by “and”; a condition that tells them apart may be missing. Equal entries are not always repeated.

What was measured:
Experiment in all cases: [3H]PDBu displacement from recombinant PKC isozyme (baculovirus)
Format in all cases: binding
Settings in all cases: [3H]PDBu competition
[1] = molecular target: T1, γ-PKC (Homo sapiens, UniProt P05129)
T1 construct: made in house; host or cells: Sf9 cells (baculovirus)
Experimental: (§1) The ability of representative compounds of the invention to bind specific isozymes of PKC was determined using an assay (Example 13) in which displacement of [20-^3H]phorbol -12,13-dibutyrate ([^3H]PDBu) from either recombinant PKC isozymes prepared in a Baculovirus system, or unresolved mixture of isozymes of PKC isolated from whole brain extracts, was used. These procedures are described below. […] (See the key that follows)
(§2) Analysis of [20-^3H]phorbol 12,13-dibutyrate binding to PKC. Specific binding of [^3H]PDBu to PKC was carried out as described (Kazanietz, et al., Mol. Pharmacol. 44:298-307 (1993)). [^3H]PDBu (20.0 Ci/mmol) was obtained from New England Nuclear. Phosphatidylserine and bovine […] were obtained from Sigma Chemical Co. Binding was determined in an incubation volume of 250 μl, containing [^3H]PDBu, PKC, 0.05 M Tris-Cl, pH 7.4, 100 μg/ml phosphatidylserine, various concentrations of the ligand being assayed for competition of [^3H]PDBu binding, and bovine […] at 1 mg/ml. In the case of the classical PKCs (α, β, […]) CaCl2 was included at a concentration of 0.1 mM. Liposomes of phosphatidylserine were prepared as follows. The phosphatidylserine solutions were dried down from CHCl3 under a stream of N2. After addition of 0.05 M Tris-Cl, pH 7.4, liposomes were prepared by sonication for 30 sec with the microtip probe of Sonifier Cell Disrupter (Heat Systems-Ultrasonics). [^3H]PDBu was used at a concentration twice the Kd previously determined for the specific receptor. Ligands were assayed over a concentration range of 3 orders of magnitude. Ligands were diluted in 0.05 M Tris-Cl, pH 7.4 containing 1 mg/ml bovine g-globulin. If the compounds were not soluble at the highest concentration used, they were dissolved in organic solvent (CHCl3 or ethanol) and mixed with the phosphatidylserine dissolved in CHCl3. The solvent was removed under a stream of N2.
(§3) Mixed liposomes were then prepared, as described for the preparation of the liposomes of phosphatidylserine alone, by the addition of 0.05 M Tris-Cl, pH 7.4, and sonication for 30 sec with the microtip probe of a Sonifier Cell Disrupter (Heat Systems-Ultrasonics). Incubation was for 5 min at 37° C. The samples were then be cooled to 4° C. for 8 min and 200 μl of 35% polyethylene glycol in 0.05 M Tris-Cl, pH 7.4 (w:w) added. After vigorous mixing, the samples were incubated for 15 min to allow precipitation of the receptor. The precipitate was recovered by centrifugation at 12,000 rpm in a Beckman microcentrifuge at 4° C. A 100 μl aliquot of the supernatant was removed and its radioactivity determined in a Wallac liquid scintillation counter, Model 1409. This value provided a measure of the concentration of unbound [^3H]PDBu. The remainder of the supernatant was removed by aspiration and blotting with absorbent tissue. The tip of the centrifuge tube was cut off and the radioactivity in the pellet measured to determine total bound [^3H]PDBu. Non-specific binding of [^3H]PDBu was measured in the presence of 30 μM non-radioactive PDBu and used to determine an apparent partition coefficient for [^3H]PDBu under these assay conditions.
(§4) Specific binding represents the difference between total binding and the non-specific binding, where the latter value was calculated from the partition coefficient and the measured free [^3H]PDBu concentration in each tube. In each experiment, triplicate determinations were performed at each concentration of competing ligand.

[2] = molecular target: T2, ε-PKC (Homo sapiens, UniProt Q02156)
T2 sequence (Q02156 1-737): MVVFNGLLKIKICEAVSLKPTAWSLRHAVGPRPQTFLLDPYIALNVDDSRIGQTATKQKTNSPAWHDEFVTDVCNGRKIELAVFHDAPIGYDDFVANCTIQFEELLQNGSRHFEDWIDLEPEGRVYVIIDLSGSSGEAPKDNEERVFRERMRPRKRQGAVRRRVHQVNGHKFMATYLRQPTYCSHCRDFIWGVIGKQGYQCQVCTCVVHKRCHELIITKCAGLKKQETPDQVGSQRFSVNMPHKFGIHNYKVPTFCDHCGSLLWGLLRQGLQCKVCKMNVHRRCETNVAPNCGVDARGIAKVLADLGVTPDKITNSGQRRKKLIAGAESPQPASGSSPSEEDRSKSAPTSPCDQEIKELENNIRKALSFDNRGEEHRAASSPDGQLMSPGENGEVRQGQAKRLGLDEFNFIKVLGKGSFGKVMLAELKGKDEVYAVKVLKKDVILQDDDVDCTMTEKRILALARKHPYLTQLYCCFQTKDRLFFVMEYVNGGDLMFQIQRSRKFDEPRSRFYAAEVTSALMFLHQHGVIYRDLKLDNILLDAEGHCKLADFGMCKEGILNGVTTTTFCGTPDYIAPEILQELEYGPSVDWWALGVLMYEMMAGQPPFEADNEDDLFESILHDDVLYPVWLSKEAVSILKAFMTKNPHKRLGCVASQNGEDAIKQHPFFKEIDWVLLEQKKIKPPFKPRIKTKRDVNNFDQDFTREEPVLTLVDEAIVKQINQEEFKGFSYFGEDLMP
Experimental: as §1, §2, §3, §4

[3] = molecular target: T3, α-PKC (Homo sapiens, UniProt P17252)
T3 construct: made in house; host or cells: Sf9 cells (baculovirus)
Experimental: as §1, §2, §3, §4

| Compound | Ki [1] [nM] | Ki [2] | Ki [3] [nM] |
| --- | --- | --- | --- |
| CCCCCCCCCCCC(=O)Oc1cc2c(cc1C(C)=O)[C@@H]1[C@@H](CO)NC(=O)[C@@H]1[C@]2(C)C(C)C [Compound 4, (3S, 8S, 9S, 10S)-5-acetyl-6-dodecanoyloxyl-3-hydroxymethyl-8-isopropyl-8-methyl-3,3a,8,8a-tetrahydro-2H -2-aza-cyclopenta[a]inden-1-one] | 3650 ± 1090 | 5100 ± 3110 nM | 2250 ± 585 |
| CCCCCCCCCCCC(=O)Oc1ccc2c(c1)[C@](C)(C(C)C)[C@H]1C(=O)N[C@H](CO)[C@@H]21 [Compound 2, (3S, 8R, 9S, 10S)-6-dodecanoyloxyl-3-hydroxymethyl-8-isopropyl-8-methyl-3,3a,8,8a-tetrahydro-2H -2-aza-cyclopenta[a]inden-1-one] | 209 ± 38 | 515 ± 155 nM | 395 ± 71 |
| CCCCCCCCCCCC(=O)Oc1ccc2c(c1)[C@@](C)(C(C)C)[C@H]1C(=O)N[C@H](CO)[C@@H]21 [Compound 3, (3S, 8S, 9S, 10S)-6-dodecanoyloxyl-3-hydroxymethyl-8-isopropyl-8-methyl-3,3a,8,8a-tetrahydro-2H -2-aza-cyclopenta[a]inden-1-one] | 327 ± 65 | 228 ± 43 nM | 674 ± 249 |

Second part, the compound after the results:

| Ki [1] [nM] | Ki [2] | Ki [3] [nM] | Compound |
| --- | --- | --- | --- |
| 279 ± 50 | 469 nM and 946 nM | 580 ± 214 | CCCCCCCCC#Cc1ccc2c(c1)C(C)(C(C)C)C1C(=O)NC(CO)C21 [Compound 1, (3S, 8R, 9S, 10S)-6-(dec-1′-ynyl)-3-hydroxymethyl-8-isopropyl-8-methyl-3,3a,8,8a-tetrahydro-2H-2-aza-cyclopenta[a]inden-1-one] |
| > 10000 | > 10000 nM | > 10000 | CCCCCCCCCCCC(=O)Oc1cc2c(cc1C(C)=O)[C@@H]1[C@@H](CO)NC(=O)[C@@H]1[C@@]2(C)C(C)C [Compound 11, (3S, 8R, 9S, 10S)-5-acetyl-6-dodecanoyloxyl-3-hydroxymethyl-8-isopropyl-8-methyl-3,3a,8,8a-tetrahydro-2H -2-aza-cyclopenta[a]inden-1-one] |
| 1230 ± 258 | 1300 ± 377 nM | 2980 ± 1040 | CCCCCCCCCCCC(=O)Oc1cc2c(cc1Br)[C@@H]1[C@@H](CO)NC(=O)[C@@H]1[C@]2(C)C(C)C [Compound 5, (3S, 8S, 9S, 10S)-5-bromo-6-dodecanoyloxyl-3-hydroxymethyl-8-isopropyl-8-methyl-3,3a,8,8a-tetrahydro-2H -2-aza-cyclopenta[a]inden-1-one] |
